Measurements taken from patent US20230200390A1, “SELECTIVE HERBICIDES BASED ON SUBSTITUTED ISOXAZOLIN CARBOXAMIDES AND MEFENPYR-DIETHYL” (BAYER AKTIENGESELLSCHAFT, priority 2020, published 2023).

Legend:
Format in all cases: in vivo
[1] = tested on: spring barley, HORVS Montoya; experiment: Tank-mix; post-emergence: crop damage by herbicide with/without safener mefenpyr-diethyl
Protocol: (§1) Seeds of crops (spring wheat, TRZAS; spring barley, HORVS; maize, ZEAMA) were placed in sandy loam soil in peat pots, covered with soil and cultivated in a greenhouse under good growth conditions. Two to three weeks after sowing, the test plants were treated at the 1 to 3-leaf stage. The herbicide/safener active compound combinations according to the invention, formulated as wettable powders or emulsion concentrates, and, in parallel tests, the correspondingly formulated individual active compounds were sprayed onto the green parts of the plants in various dosages using an amount of water of 300 l/ha (converted).
(§2) The pots were returned under good growing conditions in a glasshouse and a visual assessment of herbicidal effects was made at intervals from 1 to 3 weeks after herbicide application (DAT=days after treatment). Assessment was on a percentage basis in comparison with untreated control plants (0%=no injury, 100%=complete kill).

[2] = tested on: spring wheat, TRZAS Triso; experiment: as above; details: 10 DAT
Protocol: as §1, §2

[3] = tested on: spring barley, HORVS Montoya; experiment: Seed treatment with safener; post-emergence herbicide, crop damage; details: for HER effect + SAF / Reduction [%] / Reduction [Difference]: mefenpyr-diethyl 0.5 g a.i./kg seed
Excerpt: (§3) For safener seed treatment trials, sufficient seed amounts of the respective crops (spring wheat (TRZAS); spring barley (HORVS)) were weighed into screw cap glass bottles with a minimum volume trice of the seeds.
(§4) As a first step, specified safeners formulated as wettable powder (WP) or wettable granules (WG) were weighed out for the required dosages (g a.i./kg seed), corresponding to the seed amounts. The safener amounts were mixed with a coloured slurry blind formulation type, prediluted with milk at 3.5% fat rate (25 mgs slurry formulation plus 2 ml milk per 10 grams of seed). A tube roller was used for coating. The solutions were gradually pipetted each on the rotating seeds followed by coating for min. 3 hours until all liquid had been soaked up by the seeds. Thereafter, the coated seeds were put flat on open trays for drying over night at room temperature.
(§5) Treated seeds were then placed into pots (7 cm diameter) on the surface of sandy loam, pressed down, flat covered with additional soil and finally covered with sandy soil, also pressed down, watered, and kept under good growth conditions in a greenhouse, until the plants had reached 2-leaf-stage (BBCH 12).
(§6) At that stage, post-emergence application of the specified herbicides was done on:
(§7) a) pot sets containing plants with safener-coated seeds as described above,
(§8) b) as a reference, pot sets of plants without seed treatment.
(§9) The herbicides were formulated as wettable powder (WP). Equivalent to the spray area, compound amounts were weighed out and diluted related to the water application rate (300 l/ha) to an aqueous suspension plus additive (1 l/ha MERO). Dosage related equivalents were conventionally sprayed on trays with the potted plants.
(§10) After application, the test plants were kept under good growth conditions in a greenhouse.
(§11) Assessment timings were 10 and 21 days after treatment (DAT) with the herbicide, by visual scoring of the crop damage in % (comparison of untreated with treated plants, either sprayed only with herbicide or with herbicide on plants with treated seeds).

[4] = tested on: spring wheat, TRZAS Triso; experiment: as above; details: 10 DAT; for HER effect + SAF [%] (crop damage) / Reduction [%] / Reduction [Difference]: mefenpyr-diethyl 0.5 g a.i./kg seed; for HER effect [%] (crop damage, herbicide without safener): no safener
Excerpt: as §3, §4, §5, §6, §7, §8, §9, §10, §11

[5] = HER 8 g a.i./ha + mefenpyr-diethyl 50 g a.i./ha, 21 DAT
[6] = HER 32 g a.i./ha + mefenpyr-diethyl 100 g a.i./ha, 21 DAT
[7] = herbicide alone 8 g a.i./ha, 21 DAT
[8] = herbicide alone 32 g a.i./ha, 21 DAT
[9] = HER 8 g a.i./ha + mefenpyr-diethyl 50 g a.i./ha
[10] = HER 32 g a.i./ha + mefenpyr-diethyl 100 g a.i./ha
[11] = HER 8 g a.i./ha post-emergence, 21 DAT
[12] = HER 32 g a.i./ha post-emergence, 21 DAT
[13] = herbicide alone 8 g a.i./ha post-emergence, 21 DAT
[14] = herbicide alone 32 g a.i./ha post-emergence, 21 DAT
[15] = HER 8 g a.i./ha + mefenpyr-diethyl 50 g a.i./ha, 10 DAT
[16] = herbicide alone 8 g a.i./ha, 10 DAT
[17] = HER 8 g a.i./ha post-emergence, 10 DAT
[18] = HER 32 g a.i./ha post-emergence, 10 DAT
[19] = HER 4 g a.i./ha + mefenpyr-diethyl 50 g a.i./ha, 10 DAT
[20] = HER 16 g a.i./ha + mefenpyr-diethyl 100 g a.i./ha, 10 DAT
[21] = HER 4 g a.i./ha + mefenpyr-diethyl 50 g a.i./ha
[22] = HER 16 g a.i./ha + mefenpyr-diethyl 100 g a.i./ha
[23] = HER 2 g a.i./ha + mefenpyr-diethyl 50 g a.i./ha, 10 DAT
[24] = HER 8 g a.i./ha + mefenpyr-diethyl 100 g a.i./ha, 10 DAT

## C=CC1(C(=O)NC2COC(C(=O)OC)C2)CC(c2cc(C)cc(F)c2)=NO1 (mixture of isomers) [Example 1.71]
[1]; [5]
  HER effect + SAF: 20%
  Reduction [%]: 60%
  Reduction [Difference]: 30
[1]; [6]
  HER effect + SAF: 50%
  Reduction [%]: 29%
  Reduction [Difference]: 20
[1]; [7]
  HER effect: 50%
[1]; [8]
  HER effect: 70%
[2]; [9]
  HER effect + SAF: 0%
  Reduction [%]: 100%
  Reduction [Difference]: 50
[2]; [10]
  HER effect + SAF: 20%
  Reduction [%]: 76%
  Reduction [Difference]: 65
[2]; herbicide alone 8 g a.i./ha
  HER effect: 50%
[2]; herbicide alone 32 g a.i./ha
  HER effect: 85%
[3]; [11]
  HER effect + SAF: 30%
  Reduction [%]: 40%
  Reduction [Difference]: 20
[3]; [12]
  HER effect + SAF: 40%
  Reduction [%]: 43%
  Reduction [Difference]: 30
[3]; [13]
  HER effect: 50%
[3]; [14]
  HER effect: 70%
[4]; HER dose 8 g a.i./ha
  HER effect + SAF [%] (crop damage): 0%
  Reduction [%]: 100%
  Reduction [Difference]: 50
  HER effect [%] (crop damage, herbicide without safener): 50%
[4]; HER dose 32 g a.i./ha
  HER effect + SAF [%] (crop damage): 0%
  Reduction [%]: 100%
  Reduction [Difference]: 85
  HER effect [%] (crop damage, herbicide without safener): 85%

## C=CC1(C(=O)NC2COC(C(=O)OCCOC)C2)CC(c2cc(C)cc(F)c2)=NO1 (mixture of isomers) [Example 1.65]
[1]; [15]
  HER effect + SAF: 20%
  Reduction [%]: 75%
  Reduction [Difference]: 60
[1]; [16]
  HER effect: 80%
[2]; [9]
  HER effect + SAF: 0%
  Reduction [%]: 100%
  Reduction [Difference]: 20
[2]; herbicide alone 8 g a.i./ha
  HER effect: 20%
[3]; [17]
  HER effect + SAF: 20%
  Reduction [%]: 75%
  Reduction [Difference]: 60
[3]; [18]
  HER effect + SAF: 50%
  Reduction [%]: 38%
  Reduction [Difference]: 30
[3]; herbicide alone 8 g a.i./ha post-emergence, 10 DAT
  HER effect: 80%
[3]; herbicide alone 32 g a.i./ha post-emergence, 10 DAT
  HER effect: 80%
[4]; HER dose 8 g a.i./ha
  HER effect + SAF [%] (crop damage): 0%
  Reduction [%]: 100%
  Reduction [Difference]: 20
  HER effect [%] (crop damage, herbicide without safener): 20%

## COC(=O)C1C=CC(NC(=O)C2(C)CC(c3cccc(F)c3)=NO2)C1 (centres unmarked) [Example 1.20]
[1]; [5]
  HER effect + SAF: 0%
  Reduction [%]: 100%
  Reduction [Difference]: 30
[1]; [6]
  HER effect + SAF: 40%
  Reduction [%]: 50%
  Reduction [Difference]: 40
[1]; [7]
  HER effect: 30%
[1]; [8]
  HER effect: 80%
[2]; [9]
  HER effect + SAF: 0%
  Reduction [%]: 100%
  Reduction [Difference]: 20
[2]; [10]
  HER effect + SAF: 30%
  Reduction [%]: 40%
  Reduction [Difference]: 20
[2]; herbicide alone 8 g a.i./ha
  HER effect: 20%
[2]; herbicide alone 32 g a.i./ha
  HER effect: 50%
[3]; [11]
  HER effect + SAF: 10%
  Reduction [%]: 67%
  Reduction [Difference]: 20
[3]; [12]
  HER effect + SAF: 20%
  Reduction [%]: 75%
  Reduction [Difference]: 60
[3]; [13]
  HER effect: 30%
[3]; [14]
  HER effect: 80%
[4]; HER dose 8 g a.i./ha
  HER effect + SAF [%] (crop damage): 0%
  Reduction [%]: 100%
  Reduction [Difference]: 20
  HER effect [%] (crop damage, herbicide without safener): 20%
[4]; HER dose 32 g a.i./ha
  HER effect + SAF [%] (crop damage): 0%
  Reduction [%]: 100%
  Reduction [Difference]: 50
  HER effect [%] (crop damage, herbicide without safener): 50%

## CCOC(=O)C1CC(NC(=O)C2(C)CC(c3cccc(F)c3)=NO2)CO1 (mixture of isomers) [Example 1.67]
[1]; [19]
  HER effect + SAF: 0%
  Reduction [%]: 100%
  Reduction [Difference]: 30
[1]; [20]
  HER effect + SAF: 0%
  Reduction [%]: 100%
  Reduction [Difference]: 60
[1]; herbicide alone 4 g a.i./ha, 10 DAT
  HER effect: 30%
[1]; herbicide alone 16 g a.i./ha, 10 DAT
  HER effect: 60%
[2]; [21]
  HER effect + SAF: 10%
  Reduction [%]: 80%
  Reduction [Difference]: 40
[2]; [22]
  HER effect + SAF: 20%
  Reduction [%]: 71%
  Reduction [Difference]: 50
[2]; herbicide alone 4 g a.i./ha
  HER effect: 50%
[2]; herbicide alone 16 g a.i./ha
  HER effect: 70%
[4]; HER dose 4 g a.i./ha
  HER effect + SAF [%] (crop damage): 10%
  Reduction [%]: 80%
  Reduction [Difference]: 40
  HER effect [%] (crop damage, herbicide without safener): 50%
[4]; HER dose 16 g a.i./ha
  HER effect + SAF [%] (crop damage): 20%
  Reduction [%]: 71%
  Reduction [Difference]: 50
  HER effect [%] (crop damage, herbicide without safener): 70%

## COCCOC(=O)C1C=CC(NC(=O)C2(C(F)(F)F)CC(c3cc(F)cc(C#N)c3)=NO2)C1 (centres unmarked) [Example 1.2]
[1]; [23]
  HER effect + SAF: 0%
  Reduction [%]: 100%
  Reduction [Difference]: 20
[1]; [24]
  HER effect + SAF: 0%
  Reduction [%]: 100%
  Reduction [Difference]: 30
[1]; herbicide alone 2 g a.i./ha, 10 DAT
  HER effect: 20%
[1]; [16]
  HER effect: 30%
[2]; [9]
  HER effect + SAF: 50%
  Reduction [%]: 44%
  Reduction [Difference]: 40
[2]; herbicide alone 8 g a.i./ha
  HER effect: 90%
[4]; HER dose 8 g a.i./ha
  HER effect + SAF [%] (crop damage): 10%
  Reduction [%]: 89%
  Reduction [Difference]: 80
  HER effect [%] (crop damage, herbicide without safener): 90%
[4]; HER dose 32 g a.i./ha
  HER effect + SAF [%] (crop damage): 30%
  Reduction [%]: 67%
  Reduction [Difference]: 60
  HER effect [%] (crop damage, herbicide without safener): 90%
